Data on 36 molecules can be found in patent publication US9617258B2, “Pyrrolo[2,3-d]pyrimidinyl, pyrrolo[2,3-b]pyrazinyl and pyrrolo[2,3-d]pyridinyl acrylamides” (Pfizer Inc., priority 2013, dated 2017).

Molecules are shown by their SMILES.

The nature of this series: Stability of JAK3 covalent inhibitors in human whole blood.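 Also: parent compound remaining over incubation time quantified by LC-MS/MS as peak area ratio against an internal standard, using pooled K2-EDTA blood.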 Format: in vitro ADME. The note with it: both sexes, whole blood, 37° C., read-out: Human blood stability t1/2.
As to `C=CC(=O)N1CC[C@@H](CNc2cnc3[nH]cc(C(=O)NC(C)C)c3n2)C1` [Example 191, 2-({[(3S)-1-acryloylpyrrolidin-3-yl]methyl}amino)-(N-propan-2-yl)-5H-pyrrolo[2,3-b]pyrazine-7-carboxamide], the half-life at 1 μM was > 360 min.

Consider `COCCc1c[nH]c2ncnc(N[C@@H]3CCCN(C(=O)/C=C/CN(C)C)C3)c12` [Example 108, (2E)-4-(dimethylamino)-1-[(3R)-3-{[5-(2-methoxyethyl)-7H-pyrrolo[2,3-d]pyrimidin-4-yl]amino}pipendin-1-yl]but-2-en-1-one], for which the half-life at 1 μM was > 360 min.

As for `C=CC(=O)N1CCC[C@@H](Nc2ncnc3[nH]cc(C)c23)C1` [Example 43, 1-{(3R)-3-[(5-methyl-7H-pyrrolo[2,3-d]pyrimidin-4-yl)amino]piperidin-1-yl}prop-2-en-1-one], the half-life at 1 μM was 274 min.

`C=CC(=O)N1CCC(Nc2cnc3[nH]cc(-c4cnc(OC)nc4)c3n2)CC1` [Example 210, 1-(4-{[7-(2-methoxypyrimidin-5-yl)-5H-pyrrolo[2,3-b]pyrazin-2-yl]amino}piperidin-1-yl)prop-2-en-1-one]: the half-life at 1 μM was > 360 min.

In the case of `C=CC(=O)N1CCC(Nc2cnc3[nH]cc(C(=O)NCC(C)CC(F)(F)F)c3n2)CC1` (stereo not drawn) [Example 253, 2-[(1-acryloylpiperidin-4-yl)amino]-N-(4,4,4-trifluoro-2-methylbutyl)-5H-pyrrolo[2,3-b]pyrazine-7-carboxamide], the half-life at 1 μM was > 360 min.

Regarding `C=CC(=O)N1CCN(c2cnc3[nH]cc(C(=O)NC(C)C)c3n2)[C@H](C)C1` [Example 307, 2-[(2R)-4-acryloyl-2-methylpiperazin-1-yl]-N-(propan-2-yl)-5H-pyrrolo[2,3-b]pyrazine-7-carboxamide], the half-life at 1 μM is 122 min.

Turning to `C=CC(=O)N1CC[C@@H]2CCN(c3nc(N)nc4[nH]ccc34)[C@@H]2C1` [Example 73, 1-[(3aS,7aS)-1-(2-Amino-7H-pyrrolo[2,3-d]pyrimidin-4-yl)octahydro-6H-pyrrolo[2,3-c]pyridin-6-yl]prop-2-en-1-one], the half-life at 1 μM is 195 min.

Consider `C=CC(=O)N1CC(Nc2cnc3[nH]ccc3n2)C1` [Example 337, 1-(3-((5H-Pyrrolo[2,3-b]pyrazin-2-yl)amino)azetidin-1-yl)prop-2-en-1-one], for which the half-life at 1 μM is 81 min.

In the case of `C=CC(=O)N1CC[C@@H](Nc2cnc3[nH]cc(C(=O)NC(C)C)c3n2)[C@H](O)C1` [Example 196, 2-{[(3R,4R)-1-acryloyl-3-hydroxypiperidin-4-yl]amino}-N-(propan-2-yl)-5H-pyrrolo[2,3-b]pyrazine-7-carboxamide], the half-life at 1 μM was > 360 min.

In the case of `C=CC(=O)N1CCC[C@@H](Nc2ncnc3[nH]cc(CCOC)c23)C1` [Example 46, 1-[(3R)-3-{[5-(2-methoxyethyl)-7H-pyrrolo[2,3-d]pyrimidin-4-yl]amino}piperidin-1-yl]prop-2-en-1-one], the half-life at 1 μM is > 344 min.

In the case of `C=CC(=O)N1CCN(c2cnc3[nH]cc(C(=O)NC(C)C)c3n2)CC1` [Example 174, 2-(4-acryloylpiperazin-1-yl)-N-(propan-2-yl)-5H-pyrrolo[2,3-b]pyrazine-7-carboxamide], the half-life at 1 μM amounted to 249 min.

In the case of `C=CC(=O)N1CCC(Oc2cnc3[nH]cc(-c4ccnc(C)c4)c3n2)CC1` [Example 220, 1-(4-{[7-(2-methylpyridin-4-yl)-5H-pyrrolo[2,3-b]pyrazin-2-yl]oxy}piperidin-1-yl)prop-2-en-1-one], the half-life at 1 μM is > 360 min.

Consider `C=CC(=O)N1CC(Nc2cnc3[nH]cc(C(=O)NC(C)C)c3n2)C1` [Example 188, 2-[(1-acryloylazetidin-3-yl)amino]-N-(propan-2-yl)-5H-pyrrolo[2,3-b]pyrazine-7-carboxamide], for which the half-life at 1 μM amounted to 96 min.

On to `C=CC(=O)N1CCC(Nc2cnc3[nH]cc(C(=O)NCC(C)(F)F)c3n2)CC1` [Example 282, 2-[(1-acryloylpiperidin-4-yl)amino]-N-(2,2-difluoropropyl)-5H-pyrrolo[2,3-b]pyrazine-7-carboxamide], for which the half-life at 1 μM worked out at 243 min.

In the case of `C=CC(=O)N1C[C@H](F)C[C@@H](Nc2ncnc3[nH]ccc23)C1` [Example 10, 1-((3R,5R)-3-((7H-pyrrolo[2,3-d]pyrimidin-4-yl)amino)-5-fluoropiperidin-1-yl)prop-2-en-1-one], the half-life at 1 μM was determined as 163 min.

`C=CC(=O)N1CCC(Nc2cnc3[nH]cc(C(=O)NC4CCCCC4)c3n2)CC1` [Example 278, 2-[(1-acryloylpiperidin-4-yl)amino]-N-cyclohexyl-5H-pyrrolo[2,3-b]pyrazine-7-carboxamide]: the half-life at 1 μM was found to be 236 min.

`C=CC(=O)N1CCC(Nc2cnc3[nH]cc(C(=O)NCCC(F)(F)F)c3n2)CC1` [Example 246, 2-[(1-acryloylpiperidin-4-yl)amino]-N-(3,3,3-trifluoropropyl)-5H-pyrrolo[2,3-b]pyrazine-7-carboxamide]: the half-life at 1 μM was > 360 min.

Take `C=CC(=O)N1CCN(c2cnc3[nH]cc(C(=O)NC(C)C)c3n2)CC1(C)C` [Example 293, 2-(4-acryloyl-3,3-dimethylpiperazin-1-yl)-N-(propan-2-yl)-5H-pyrrolo[2,3-b]pyrazine-7-carboxamide]: the half-life at 1 μM is > 360 min.

With `C=CC(=O)N1C[C@@H]2C(Nc3cnc4[nH]cc(C(=O)NC(C)C)c4n3)[C@@H]2C1` (stereo partly drawn) [Example 189, 2-{[(1R,5S,6s)-3-acryloyl-3-azabicyclo[3.1.0]hex-6-yl]amino}-N-(propan-2-yl)-5H-pyrrolo[2,3-b]pyrazine-7-carboxamide], the half-life at 1 μM was > 360 min.

Regarding `C=CC(=O)N1C[C@@H](C#N)C[C@@H](Nc2ncnc3[nH]ccc23)C1` [Example 58, (3S,5R)-5-((7H-pyrrolo[2,3-d]pyrimidin-4-yl)amino)-1-acryloylpiperidine-3-carbonitrile], the half-life at 1 μM was found to be 35 min.

For `C=CC(=O)N1CC[C@H](C)[C@@H](Nc2ncnc3[nH]ccc23)C1` [Example 11, 1-((3R,4S)-3-((7H-pyrrolo[2,3-d]pyrimidin-4-yl)amino)-4-methylpiperidin-1-yl)prop-2-en-1-one], the half-life at 1 μM is > 296 min.

`C=CC(=O)N1CCC(Nc2cnc3[nH]cc(C(=O)NC4CCCC4)c3n2)CC1` [Example 283, 2-[(1-acryloylpiperidin-4-yl)amino]-N-cyclopentyl-5H-pyrrolo[2,3-b]pyrazine-7-carboxamide]: the half-life at 1 μM is > 360 min.

Regarding `C=CC(=O)N1CCC(Nc2cnc3[nH]ccc3n2)CC1` [Example 176, 1-[4-(5H-pyrrolo[2,3-b]pyrazin-2-ylamino)piperidin-1-yl]prop-2-en-1-one], the half-life at 1 μM is > 360 min.

`C=CC(=O)N1CCC(Nc2cnc3[nH]cc(C(=O)NC45CC(C4)C5)c3n2)CC1` [Example 281, 2-[(1-acryloylpiperidin-4-yl)amino]-N-(bicyclo[1.1.1]pent-1-yl)-5H-pyrrolo[2,3-b]pyrazine-7-carboxamide]: the half-life at 1 μM turned out to be 346 min.

On to `C=CC(=O)N1CCN(c2cnc3[nH]cc(C(=O)NC(C)C)c3n2)C[C@@H]1CC(C)C` [Example 303, 2-[(3S)-4-acryloyl-3-(2-methylpropyl)piperazin-1-yl]-N-(propan-2-yl)-5H -pyrrolo[2,3-b]pyrazine-7-carboxamide], for which the half-life at 1 μM was found to be 341 min.

On to `C=CC(=O)N1CCC[C@@H](Nc2ncnc3[nH]cc(F)c23)C1` [Example 42, 1-{(3R)-3-[(5-fluoro-7H-pyrrolo[2,3-d]pyrimidin-4-yl)amino]piperidin-1-yl}prop-2-en-1-one], for which the half-life at 1 μM was > 360 min.

For `C=CC(=O)N1C[C@H](Nc2ccnc3[nH]cc(C#N)c23)CC[C@@H]1C` [Example 165, 4-{[(3R,6S)-1-Acryloyl-6-methylpiperidin-3-yl]amino}-1H-pyrrolo[2,3-b]pyridine-3-carbonitrile], the half-life at 1 μM is > 349 min.

For the molecule `C=CC(=O)N1CCC(Nc2cnc3[nH]cc(C(=O)NC[C@H](C)CC(F)(F)F)c3n2)CC1` [Example 241, 2-[(1-acryloylpiperidin-4-yl)amino]-N-[(2R)-4,4,4-trifluoro-2-methylbutyl]-5H-pyrrolo[2,3-b]pyrazine-7-carboxamide], the half-life at 1 μM is > 310 min.

For the molecule `C=CC(=O)N1CCC(Nc2cnc3[nH]cc(C(=O)NC(C)(C)C)c3n2)CC1` [Example 266, 2-[(1-acryloylpiperidin-4-yl)amino]-N-tert-butyl-5H-pyrrolo[2,3-b]pyrazine-7-carboxamide], the half-life at 1 μM came to 336 min.

For the molecule `C=CC(=O)N1C[C@H](Nc2ncnc3[nH]cc(Cl)c23)CC[C@@H]1C` [Example 18, 1-((2S,5R)-5-((5-Chloro-7H-pyrrolo[2,3-d]pyrimidin-4-yl)amino)-2-methylpiperidin-1-yl)prop-2-en-1-one], the half-life at 1 μM was > 318 min.

Take `C=CC(=O)N1CCC(Nc2cnc3[nH]cc(C(=O)NCCCC(F)(F)F)c3n2)CC1` [Example 240, 2-[(1-acryloylpiperidin-4-yl)amino]-N-(4,4,4-trifluorobutyl)-5H-pyrrolo[2,3-b]pyrazine-7-carboxamide]: the half-life at 1 μM worked out at 235 min.

Consider `C=CC(=O)N1CCC(Nc2cnc3[nH]cc(C(=O)NC4CCC(F)(F)C4)c3n2)CC1` (stereo not drawn) [Example 259, 2-[(1-acryloylpiperidin-4-yl)amino]-N-(3,3-difluorocyclopentyl)-5H-pyrrolo[2,3-b]pyrazine-7-carboxamide], for which the half-life at 1 μM is > 360 min.

`C=CC(=O)N1CCC(Nc2cnc3[nH]cc(C(=O)NC4CCC4)c3n2)CC1` [Example 280, 2-[(1-acryloylpiperidin-4-yl)amino]-N-cyclobutyl-5H-pyrrolo[2,3-b]pyrazine-7-carboxamide]: the half-life at 1 μM was > 360 min.

As to `C=CC(=O)N(C)C1CN(c2cnc3[nH]cc(C(=O)NC(C)C)c3n2)C1` [Example 187, 2-{3-[acryloyl(methyl)amino]azetidin-1-yl}-N-(propan-2-yl)-5H-pyrrolo[2,3-b]pyrazine-7-carboxamide], the half-life at 1 μM was > 360 min.

With `C=CC(=O)N1CCC(Nc2cnc3[nH]cc(C(=O)N[C@H](C)COC)c3n2)CC1` [Example 268, 2-[(1-acryloylpiperidin-4-yl)amino]-N-[(2R)-1-methoxypropan-2-yl]-5H-pyrrolo[2,3-b]pyrazine-7-carboxamide], the half-life at 1 μM is 288 min.

In the case of `C=CC(=O)N1C[C@@H](C)C[C@@H](Nc2ncnc3[nH]ccc23)C1` (single isomer, unassigned) [Example 14], the half-life at 1 μM was > 251 min.
